Data as given in US9062037B2, “Tazarotene derivatives” (Stiefel Laboratories, Inc., priority 2009, dated 2015).
Read-outs that look alike come from different tables or passages of the source.

What was measured:
[1] = for k constant: HLM
Procedure: (§2) Hepatic microsomal reactions were carried out in microcentrifuge tubes in the following manner. Human liver microsomes (0.5 or 1.0 mg/ml protein), Test Article (1 or 10 μM), paraoxon (0, 10 or 100 μM), NADPH regenerating system (10 mM glucose-6-phosphate, 1 unit/ml glucose-6-phosphate dehydrogenase, 1 mM NADP^+), magnesium chloride (5 mM) in 0.1 M potassium phosphate buffer, pH 7.4 were incubated at 37° C. in a shaking water bath. Reactions were initiated with the addition of substrate with the exception of the zero-time incubations. The total reaction volume was 0.2 ml. The reactions were incubated for 15, 30, 45 or 60 minutes, terminated with 0.2 ml ice-cold acetonitrile and then placed on ice. For zero-time incubations, ice cold acetonitrile was added to the mixture containing microsomes, along with NADPH regenerating system, magnesium chloride in phosphate buffer and the Test Article. Each time point was carried out in triplicate.
Disappearance of Test Article and formation of metabolites following in vitro metabolism were determined by LC-MS/MS using multiple reaction monitoring. LightSight® software (Applied Biosystems, Foster City, Calif.) was used to generate the mass spectrometry methods and carry out the data mining.
Control incubations were carried out with the identical incubation procedures as described above with the following exceptions. In negative control reactions, microsomes were not included. […] Duplicate reactions with an initial concentration of 10 μM were incubated for 0 or 30 minutes. Microsomal metabolic stability of 7-ethoxycoumarin was determined by LC-MS/MS.

SkinEthic RHE cultures [2] = assay: qRT-PCR of K10, K19 and filaggrin expression in SkinEthic RHE cultures; type: cell-based, human; details: 6 μl test article, 72 hours
Procedure: (§1) SkinEthic RHE cultures were transferred into 6-well plates containing 1.0 mL/well growth media. The cultures were equilibrated at 37° C. and the media was changed daily. The cultures were subsequently placed in 60 mm petri dishes containing 3.5 mL growth media. 6 μl aliquots of the Test Articles shown in Table 3 were applied to duplicate cultures. The cultures were incubated at 37° C. for 72 hours. At the end of the incubation period, the growth media was collected and stored at −20° C. The tissues were cut in half and one half was placed in 10% NBF for histology, while the other half was placed in RNAlater™ solution (Ambion). The following analyses were performed: a) IL-1α and IL-8 activity assay; b) Hand E staining; c) Immunohistochemistry for K10, K19 and filaggrin; and d) qRT-PCR to quantitate K10, K19 and filaggrin expression.

A431 cells = assay: PMA-induced IL-6 release from A431 cultures; type: cell-based, human; details: PMA 10 ng/mL; retinoids 0.01 to 1 μg/mL; 48 hours
Procedure: A431 cells were purchased from ATCC(CRL-1555). Cells were seeded onto 12-well plates at a density of 250,000 cells/well and incubated for 72 hours at 37° C./5% CO2 to allow cells to grow to confluency. Phorbol-12-myristate 13-acetate (PMA), diluted in DMSO (10 mg/mL stock), was added in a concentration of 10 ng/mL and retinoids were added in concentrations of 0.01 to 1 μg/mL from a 10 mg/mL stock solution in DMSO. Cultures were incubated for 48 hours at 37° C. At the end of the incubation period, growth media was collected and cell viability was determined using a CellTiterGlo assay kit (Promega). Concentrations of IL-6 were determined by ELISA and normalized based on cell viability.
It is known that PMA up regulates IL-6 expression through transactivation of the nuclear transcription factor, AP-1. Retinoids, such as tretinoin, are known to inhibit transactivation of AP-1 via retinoic acid receptors.

[3] = Reaction with benzoyl peroxide (BPO) in solution; type: physicochemical; details: at all three temperatures (35° C., room temperature, 5° C.); BPO 50-fold excess by weight
Procedure: The reaction of (i) tazarotene, tazarotene benzoate, hydroxy tazarotenic acid and tazarotene nicotinate with (ii) benzoyl peroxide (BPO) in 30% aqueous solutions was monitored at 35° C., room temperature and 5° C.
Individual solutions of each compound were prepared at approximately 0.25 mg/mL in acetonitrile:water (6:4 by volume). Reactions were initiated by mixing equal volumes of the test solution with an approximately 12 mg/mL solution of benzoyl peroxide (BPO) in acetonitrile:water (4:1 by volume). Therefore, the reaction solution contained approximately 0.125 mg/mL of the test compound and the BPO was at a 50-fold excess by weight (i.e. at the same ratio as a product containing 0.1% tazarotene and 5% BPO). Aliquots of the reaction solutions were stored at various temperatures protected from light.
Reactions were quenched by diluting 30 μL of the reaction solution to 50 mL with a diluent (acetonitrile:water in a ratio of 1:1 by volume) and storing the sample at 10° C. in the LC/MS sample tray or at 5° C. for storage. Duplicate samples were prepared at each time point (three at the start of the reaction) and the results were averaged together to generate a single value.
Samples were analyzed on a Waters Acquity UPLC with a Waters Xevo TQMS using an ESI source in the positive mode controlled by MassLynx V4.1 software. […]

in vitro = details: human, human skin microsomes, pH 7.4
Procedure: as §2
(§3) Five time points were chosen, but because of the limitation of human skin microsome supply, each one was carried out in duplicate. Skin microsomal reactions were carried out as described above for hepatic microsomal reactions with the following two exceptions. Firstly, the total reaction volume was 0.1 mL. Secondly, incubations were terminated with 0.1 mL acetonitrile.

SkinEthic RHE cultures [4] = assay: H and E staining and immunohistochemistry for K10, K19 and filaggrin in SkinEthic RHE cultures; type: cell-based, human; details: 6 μl test article, 72 hours
Procedure: as §1

[5] = Metabolism in the presence of human skin microsomes; details: for Half-life / k constant: HSkM
Procedure: as §2, §3

[6] = 1 μM initial concentration, Complete (with NADPH), 0 min
[7] = 1 μM initial concentration, Complete (with NADPH), 15 min
[8] = 1 μM initial concentration, Complete (with NADPH), 30 min
[9] = 1 μM initial concentration, Complete (with NADPH), 45 min
[10] = 1 μM initial concentration, Complete (with NADPH), 60 min
[11] = 1 μM initial concentration, Without NADPH, 0 min
[12] = 1 μM initial concentration, Without NADPH, 15 min
[13] = 1 μM initial concentration, Without NADPH, 30 min
[14] = 1 μM initial concentration, Without NADPH, 45 min
[15] = 1 μM initial concentration, Without NADPH, 60 min
[16] = 10 μM initial concentration, Complete (with NADPH), 0 min
[17] = 10 μM initial concentration, Complete (with NADPH), 15 min
[18] = 10 μM initial concentration, Complete (with NADPH), 30 min
[19] = 10 μM initial concentration, Complete (with NADPH), 45 min
[20] = 10 μM initial concentration, Complete (with NADPH), 60 min
[21] = 10 μM initial concentration, Without NADPH, 0 min
[22] = 10 μM initial concentration, Without NADPH, 15 min
[23] = 10 μM initial concentration, Without NADPH, 30 min
[24] = 10 μM initial concentration, Without NADPH, 45 min
[25] = 10 μM initial concentration, Without NADPH, 60 min

SMILES	Test Article remaining, percent of initial concentration [1, 6] [%]	Test Article remaining, percent of initial concentration [1, 7] [%]	Test Article remaining, percent of initial concentration [1, 8] [%]	Test Article remaining, percent of initial concentration [1, 9] [%]	Test Article remaining, percent of initial concentration [1, 10] [%]	Test Article remaining, percent of initial concentration [1, 11] [%]	Test Article remaining, percent of initial concentration [1, 12] [%]	Test Article remaining, percent of initial concentration [1, 13] [%]	Test Article remaining, percent of initial concentration [1, 14] [%]	Test Article remaining, percent of initial concentration [1, 15] [%]	Test Article remaining, percent of initial concentration [1, 16] [%]	Test Article remaining, percent of initial concentration [1, 17] [%]	Test Article remaining, percent of initial concentration [1, 18] [%]	Test Article remaining, percent of initial concentration [1, 19] [%]	Test Article remaining, percent of initial concentration [1, 20] [%]	Test Article remaining, percent of initial concentration [1, 21] [%]	Test Article remaining, percent of initial concentration [1, 22] [%]	Test Article remaining, percent of initial concentration [1, 23] [%]	Test Article remaining, percent of initial concentration [1, 24] [%]	Test Article remaining, percent of initial concentration [1, 25] [%]	other results
CCOC(=O)c1ccc(C#Cc2ccc3c(c2)C(C)(C)CCS3)nc1 [Tazarotene, ethyl 6-[2-(4,4-dimethylthiochroman-6-yl)-ethynyl nicotinate]	100	21.1	4.91	1.80	0.70	100	22.0	4.86	1.43	0.65	100	24.1	6.55	2.18	0.89	100	21.9	4.64	1.48	0.55	k constant ([1]; 1 μM, Complete): −0.0880; k constant ([1]; 1 μM, Without NADPH): −0.0899; k constant ([1]; 10 μM, Complete): −0.0827; k constant ([1]; 10 μM, Without NADPH): −0.0914
CCOC(=O)c1ccc(C#Cc2ccc3c(c2)C(C)(C)CC(OC(=O)c2ccccc2)S3)nc1 (stereo not drawn) [Compound 4, 6-(2-(2-benzoyloxy-4,4-dimethylthiochroman-6-yl)ethynyl)nicotinic acid, ethyl ester]	100	20.3	4.45	1.47	0.73	100	17.3	2.97	1.07	0.53	100	99.3	73.4	63.2	55.2	100	87.0	64.0	51.0	41.0	down regulation of K10 gene expression compared to untreated and vehicle controls (SkinEthic RHE cultures [2]): uninterpretable; down regulation of filaggrin gene expression compared to untreated and vehicle controls (SkinEthic RHE cultures [2]): equivocal; PMA-induced IL-6 release (A431 cells): significantly decreased; less reactive with BPO than tazarotene and hydroxy tazarotenic acid [3]: ~25 times; half-life at 10 µM (in vitro): 6.8 h; filaggrin by immunohistochemistry (SkinEthic RHE cultures [4]): down regulated; k constant ([1]; 1 μM, Complete): −0.0893; k constant ([1]; 1 μM, Without NADPH): −0.0964; k constant ([1]; 10 μM, Complete): −0.0097; k constant ([1]; 10 μM, Without NADPH): −0.0146; rate of metabolism by human skin microsomes relative to human liver microsomes [5]: slower rate; Half-life ([5]; 1 μM, Complete): 8.25 h; k constant ([5]; 1 μM, Complete): −0.0014; Half-life ([5]; 1 μM, Without NADPH): 3.62 h; k constant ([5]; 1 μM, Without NADPH): −0.0032; k constant ([5]; 10 μM, Complete): −0.0017; Half-life ([5]; 10 μM, without NADPH): 7.7 h; k constant ([5]; 10 μM, without NADPH): −0.0015; metabolized ([5]; after 150 min, 2 mg/ml human skin microsomes): 20%
